Assay results: paper PMC11945486, “TAS1R2/TAS1R3 Single-Nucleotide Polymorphisms Affect Sweet Taste Receptor Activation by Sweeteners: The SWEET Project” (Nutrients, 2025)
No end group written: not given here.

Target: T1, human TAS1R2-WT/TAS1R3-S551N (Homo sapiens, UniProt Q7RTX0+Q8TE23, S551N)
T1 construct: expressed in transfected cells; host or cells: HEK293T stably expressing Gα16gust44
T1 sequence (Q8TE23 20-839): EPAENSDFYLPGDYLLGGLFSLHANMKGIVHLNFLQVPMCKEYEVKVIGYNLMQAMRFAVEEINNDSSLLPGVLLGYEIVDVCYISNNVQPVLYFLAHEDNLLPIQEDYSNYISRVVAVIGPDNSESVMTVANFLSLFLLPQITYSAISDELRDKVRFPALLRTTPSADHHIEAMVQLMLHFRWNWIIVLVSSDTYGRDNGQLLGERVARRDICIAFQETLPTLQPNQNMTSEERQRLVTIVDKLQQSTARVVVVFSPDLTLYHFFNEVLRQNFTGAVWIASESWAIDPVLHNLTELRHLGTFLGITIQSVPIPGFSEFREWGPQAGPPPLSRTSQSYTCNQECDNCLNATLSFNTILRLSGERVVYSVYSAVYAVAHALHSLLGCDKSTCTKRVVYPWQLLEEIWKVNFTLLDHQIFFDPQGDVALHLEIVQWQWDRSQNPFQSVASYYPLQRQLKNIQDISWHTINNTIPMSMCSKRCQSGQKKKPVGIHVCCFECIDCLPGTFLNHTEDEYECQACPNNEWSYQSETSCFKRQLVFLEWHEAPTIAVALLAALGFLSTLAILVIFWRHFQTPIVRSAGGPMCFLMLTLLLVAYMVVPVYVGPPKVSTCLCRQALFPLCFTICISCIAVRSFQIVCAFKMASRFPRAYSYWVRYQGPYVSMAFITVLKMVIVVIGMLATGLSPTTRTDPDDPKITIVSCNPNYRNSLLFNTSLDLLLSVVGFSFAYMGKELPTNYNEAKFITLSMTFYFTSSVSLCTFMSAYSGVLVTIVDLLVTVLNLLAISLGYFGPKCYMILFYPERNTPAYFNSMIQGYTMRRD
T1 sequence (Q7RTX0 21-852 S551N): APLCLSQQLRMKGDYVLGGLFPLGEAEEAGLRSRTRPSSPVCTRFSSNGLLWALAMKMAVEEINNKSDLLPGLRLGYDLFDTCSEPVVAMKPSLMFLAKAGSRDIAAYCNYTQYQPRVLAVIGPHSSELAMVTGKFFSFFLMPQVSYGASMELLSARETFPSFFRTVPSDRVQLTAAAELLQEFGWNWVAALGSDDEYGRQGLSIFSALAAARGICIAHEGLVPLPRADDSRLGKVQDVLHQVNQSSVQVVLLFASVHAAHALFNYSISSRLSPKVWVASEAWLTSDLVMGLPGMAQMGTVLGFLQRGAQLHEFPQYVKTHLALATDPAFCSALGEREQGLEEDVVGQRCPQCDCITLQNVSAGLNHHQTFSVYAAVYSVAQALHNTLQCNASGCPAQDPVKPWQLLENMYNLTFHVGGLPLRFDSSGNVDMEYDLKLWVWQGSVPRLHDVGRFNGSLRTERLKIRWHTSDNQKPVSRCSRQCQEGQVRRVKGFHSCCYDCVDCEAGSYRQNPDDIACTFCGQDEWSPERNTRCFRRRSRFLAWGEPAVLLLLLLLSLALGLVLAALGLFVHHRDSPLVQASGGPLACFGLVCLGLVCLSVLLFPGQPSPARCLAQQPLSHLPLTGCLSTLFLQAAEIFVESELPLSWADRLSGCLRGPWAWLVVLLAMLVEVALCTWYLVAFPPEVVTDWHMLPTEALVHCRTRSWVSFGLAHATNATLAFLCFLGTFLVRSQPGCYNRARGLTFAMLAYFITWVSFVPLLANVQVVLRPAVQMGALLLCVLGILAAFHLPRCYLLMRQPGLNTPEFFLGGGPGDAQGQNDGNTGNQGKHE
Test: Calcium mobilisation assay, TAS1R2-WT with TAS1R3 variant S551N
Type: cell-based
Details: for EC50 / Max ΔF/F0: "-": no activation; for Max ΔF/F0: maximal signal amplitude
From the text: The coding sequences for TAS1R2 and TAS1R3 were commercially synthesised, and the human codon was optimised for expression in human cells. The coding sequences of human TAS1R2 and TAS1R3 were subcloned and inserted into the mammalian expression vectors pcDNA6/myc-HisA and pcDNA4/myc-HisA (Invitrogen; Thermo Fisher Scientific; Illkirch, France) between the EcoRI and NotI restriction sites, generating the plasmids pcDNA6-TAS1R2 and pcDNA4-TAS1R3, respectively. To increase protein expression in mammalian cells, an upstream start codon was used, which was a sequence called MAX, corresponding to the QBI SP163 element also described in pcDNA4-HisMax (Invitrogen; Thermo Fisher Scientific; Illkirch, France). To measure the expression level of the receptor by immunohistochemistry, we used the FLAG sequence ([…]) in the C-terminal position, which encodes the FLAG tag epitope. SNP variants of TAS1R2 and TAS1R3 were constructed based on […], respectively, using site-directed mutagenesis (Genewiz; Leipzig, Germany).
The HEK293T cells were kindly provided by Jay P. Slack (Givaudan Flavors Corporation; Cincinnati, OH, USA). HEK293T cells stably transfected with Gα16gust44 [43, 67] were seeded in poly-D-lysine-coated clear-bottom black 96-well plates (0.35 × 10^5 cells/well) in high-glucose DMEM supplemented with 2 mM GlutaMAX, 10% dialysed foetal bovine serum with penicillin/streptomycin and G418 (400 μg/mL) at 37 °C and 6.3% CO2 in a humidified atmosphere as previously reported. […] As a negative control, HEK293T cells were mock-transfected with the empty expression vector. After a further 24 h of incubation, the HEK293T cells were washed with C1 buffer (130 mM NaCl, 5 mM KCl, 10 mM HEPES pH 7.4 and 2 mM CaCl2). The 96-well plates containing the cells were then stimulated with sweet-tasting compounds. […] Different concentration ranges were tested depending on the sweet compound injected. The Ca^2+ changes were expressed as fractional changes in fluorescent light intensity: ΔF/F = (F − F0)/F0, where F was the fluorescent light intensity at each point, and F0 was the value of emitted fluorescent light prior to stimulus application. To calculate dose–response relationships, the changes in fluorescence upon stimulus application were averaged, mock-subtracted and baseline-corrected. The dose–response data obtained were adjusted using a 4-parameter logistic equation. The half-maximal effective concentrations (EC50 values) and maximal signal amplitudes were calculated using SigmaPlot software (version 15.0) (Systat Software; San Jose, CA, USA).
For in vitro calcium mobilisation assay performed on hTAS1R2-SNPs, hTAS1R3-SNPs and mTAS1R3-I60T, 6 to 7 concentrations were tested for each sweet compound, plus buffer alone. All concentration–receptor combinations were measured in duplicate, and each experiment was repeated at least 4 times (8 wells/concentration). Results were expressed for each concentration as ΔF/F mean ± SEM and represented as dose–response curves.

## C=C(C)[C@@H]1CC=C(/C=N/O)CC1 [Perillartine, perillartine]
  R1 = Variant EC50/WT EC50: 3.6
  EC50: 49.2 ± 13.6 µM
  Max ΔF/F0: 0.52 ± 0.04

## thaumatin
  R1 = Variant EC50/WT EC50: 1.7
  Max ΔF/F0: 0.25 ± 0.01

## brazzein (QDKCKKVYENYPVSKCQLANQCNYDCKLDKHARSGECFYDEKRNLQCICDYCEY; ends and bridges not checked; cysteine pairing not given here; UniProt P56552 1-54, looked up) [sweet-tasting protein obtained by recombinant production using the yeast Pichia pastoris]
  R1 = Variant EC50/WT EC50: 21.1
  Max ΔF/F0: 0.21 ± 0.21

## C[C@H](CC[C@@H](O[C@@H]1O[C@H](CO[C@@H]2O[C@H](CO)[C@@H](O)[C@H](O)[C@H]2O)[C@@H](O)[C@H](O)[C@H]1O[C@@H]1O[C@H](CO)[C@@H](O)[C@H](O)[C@H]1O)C(C)(C)O)[C@H]1CC[C@@]2(C)[C@@H]3CC=C4[C@@H](CC[C@H](O[C@@H]5O[C@H](CO[C@@H]6O[C@H](CO)[C@@H](O)[C@H](O)[C@H]6O)[C@@H](O)[C@H](O)[C@H]5O)C4(C)C)[C@]3(C)[C@H](O)C[C@]12C [Mogroside V, mogroside V]
  R1 = Variant EC50/WT EC50: 3.6
  Max ΔF/F0: 0.03

B1: thaumatin (protein)
chain: ATFEIVNRCSYTVWAAASKGDAALDAGGRQLNSGESWTINVEPGTKGGKIWARTDCYFDDSGSGICKTGDCGGLLRCKRFGRPPTTLAEFSLNQYGKDYIDISNIKGFNVPMDFSPTTRGCRGVRCAADIVGQCPAKLKAPGGGCNDACTVFQTSEYCCTTGKCGPTEYSRFFKRLCPDAFSYVLDKPTTVTCPGSSNYRVTFCPTA
modifications: Eight disulfides
notes: sweet-tasting plant protein, E957
  EC50: 17.4 ± 2.2 µM
